Experimental data reported in patent publication US11098032B2, “Pyran dervatives as CYP11A1 (cytochrome P450 monooxygenase 11A1) inhibitors” (ORION CORPORATION, priority 2016, dated 2021).
pIC50: −log10 of the molar value. Counter-ions that a name gives are not always drawn.

Biological target: T1, CYP11A1 (Homo sapiens, UniProt P05108)
T1 construct: human H295R adrenocortical carcinoma cell line was used as source of enzyme; endogenous in cells; host or cells: H295R human adrenocortical carcinoma cells
T1 sequence (P05108 40-521): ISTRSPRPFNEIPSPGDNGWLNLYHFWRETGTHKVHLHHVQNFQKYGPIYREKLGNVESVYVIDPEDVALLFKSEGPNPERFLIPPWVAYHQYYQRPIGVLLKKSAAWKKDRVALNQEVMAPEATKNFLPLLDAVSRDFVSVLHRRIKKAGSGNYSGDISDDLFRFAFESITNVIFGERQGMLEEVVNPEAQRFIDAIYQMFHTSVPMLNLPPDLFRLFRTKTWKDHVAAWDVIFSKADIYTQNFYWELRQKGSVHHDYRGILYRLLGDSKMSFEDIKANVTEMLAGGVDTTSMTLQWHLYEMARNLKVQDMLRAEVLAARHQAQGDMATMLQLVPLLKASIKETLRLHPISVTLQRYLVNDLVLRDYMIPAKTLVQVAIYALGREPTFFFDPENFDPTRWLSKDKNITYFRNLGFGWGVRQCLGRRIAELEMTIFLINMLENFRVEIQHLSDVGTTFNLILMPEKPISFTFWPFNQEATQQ
Experiment: CYP11A1 inhibition: modified isocaproic acid release assay (IARA) in H295R cells
Assay type: cell-based
Conditions: human H295R adrenocortical carcinoma cells treated three days, 3 nM [24,25-3H]-labelled cholesterol, 1% DMSO, 10 concentrations in duplicates; read-out: IC50 of the test compounds on CYP11A1 inhibition
Procedure, shortened: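 H295R adrenocortical cells treated three days with test compounds at 10 concentrations in duplicate plus 3 nM [24,25-3H]-cholesterol, 1% DMSO final. Released radiolabelled isocaproic acid measured by scintillation counting after dextran-coated charcoal extraction; IC50 determined.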

| Structure (SMILES) | pIC50 |
| --- | --- |
| O=c1cc(CN2Cc3ccccc3C2)occ1OCc1ccc(SC(F)(F)F)cc1 [Compound 3, 2-(Isoindolin-2-ylmethyl)-5-((4-((trifluoromethyl)thio)benzyl)oxy)-4H-pyran-4-one] | 5.70 to 6.52 |
| CS(=O)(=O)N1CCC(COc2coc(C[N+]3([O-])Cc4ccccc4C3)cc2=O)CC1 [Compound 289, 2-((5-((1-(Methylsulfonyl)piperidin-4-yl)methoxy)-4-oxo-4H-pyran-2-yl)-methyl)isoindoline 2-oxide] | 5.70 to 6.52 |
| O=c1cc(CN2Cc3ccccc3C2)occ1OCc1ccc(C(F)(F)F)nc1 [Compound 75, 2-(Isoindolin-2-ylmethyl)-5-((6-(trifluoromethyl)pyridin-3-yl)methoxy)-4H-pyran-4-one] | 5.70 to 6.52 |
| C[C@@H]1c2ccccc2CN1Cc1cc(=O)c(OCc2ccc(C(=O)N(C)C)cc2)co1 [Compound 133, (R)—N,N-Dimethyl-4-(((6-((1-methylisoindolin-2-yl)methyl)-4-oxo-4H-pyran-3-yl)oxy)methyl)benzamide] | 5.70 to 6.52 |
| CN(C)C(=O)c1ccc(COc2coc(CN3CCc4ccccc4C3)cc2=O)cc1 [Compound 119, 4-(((6-((3,4-Dihydroisoquinolin-2(1H)-yl)methyl)-4-oxo-4H-pyran-3-yl)oxy)-methyl)-N,N-dimethylbenzamide] | 5.70 to 6.52 |
| CS(=O)(=O)C1CCC(COc2coc(CN3Cc4ccccc4C3)cc2=O)CC1 (centres unmarked) [Compound 220, 2-(Isoindolin-2-ylmethyl)-5-((4-(methylsulfonyl)cyclohexyl)methoxy)-4H-pyran-4-one] | 6.52 to 6.82 |
| CS(=O)(=O)N1CC[C@@H](COc2coc(CN3Cc4ccccc4C3)cc2=O)C1 [Compound 277, (R)-2-(Isoindolin-2-ylmethyl)-5-((1-(methylsulfonyl)pyrrolidin-3-yl)methoxy)-4H-pyran-4-one] | 5.70 to 6.52 |
| CS(=O)(=O)c1ccc(COc2coc(CN3Cc4ccccc4C3)cc2=O)cc1F [Compound 17, 5-((3-Fluoro-4-(methylsulfonyl)benzyl)oxy)-2-(isoindolin-2-ylmethyl)-4H-pyran-4-one] | 5.70 to 6.52 |
| O=c1cc(CN2Cc3ccccc3C2)occ1OCC1CCN(S(=O)(=O)CC(F)(F)F)CC1 [Compound 253] | 5.70 to 6.52 |
| O=C(c1ccc(COc2coc(CN3Cc4ccccc4C3)cc2=O)cc1)N1CCCCC1 [Compound 128, 2-(Isoindolin-2-ylmethyl)-5-((4-(piperidine-1-carbonyl)benzyl)oxy)-4H-pyran-4-one] | 6.52 to 6.82 |
| CC1c2ccccc2CCN1Cc1cc(=O)c(OCc2ccc(C(=O)N3CCCC3)cc2)co1 (centres unmarked) [Compound 125, 2-((1-Methyl-3,4-dihydroisoquinolin-2(1H)-yl)methyl)-5-((4-(pyrrolidine-1-carbonyl)benzyl)oxy)-4H-pyran-4-one] | 5.70 to 6.52 |
| C=Cc1ccc(COc2coc(CN3Cc4ccccc4C3)cc2=O)cc1 [Compound 144, 2-(Isoindolin-2-ylmethyl)-5-((4-vinylbenzyl)oxy)-4H-pyran-4-one] | 5.70 to 6.52 |
| CNC(=O)c1ccc(COc2coc(CN3CCc4ccccc4C3)cc2=O)cc1F [Compound 80, 4-(((6-((3,4-Dihydroisoquinolin-2(1H)-yl)methyl)-4-oxo-4H-pyran-3-yl)oxy)-methyl)-2-fluoro-N-methylbenzamide] | 5.70 to 6.52 |
| CC(C)(C)OC(=O)N1CCC(COc2coc(CN3Cc4ccccc4C3)cc2=O)C1 (centres unmarked) [Compound 182, tert-Butyl 3-(((6-(isoindolin-2-ylmethyl)-4-oxo-4H-pyran-3-yl)oxy)methyl)-pyrrolidine-1-carboxylate] | 5.70 to 6.52 |
| O=C(NC1CCSC1=O)c1ccc(COc2coc(CN3Cc4ccccc4C3)cc2=O)cc1 (centres unmarked) [Compound 96, 4-(((6-(Isoindolin-2-ylmethyl)-4-oxo-4H-pyran-3-yl)oxy)methyl)-N-(2-oxotetra-hydrothiophen-3-yl)benzamide] | 5.70 to 6.52 |

Other lines, results leading:

| pIC50 | Structure (SMILES) |
| --- | --- |
| > 6.82 | CCN(CCO)S(=O)(=O)c1ccc(COc2coc(CN3Cc4ccccc4C3)cc2=O)cc1 [Compound 21, N-Ethyl-N-(2-hydroxyethyl)-4-(((6-(isoindolin-2-ylmethyl)-4-oxo-4H-pyran-3-yl)oxy)methyl)benzenesulfonamide] |
| 6.52 to 6.82 | O=CN1CCC(COc2coc(CN3Cc4ccccc4C3)cc2=O)CC1 [Compound 284, 4-(((6-(Isoindolin-2-ylmethyl)-4-oxo-4H-pyran-3-yl)oxy)methyl)piperidine-1-carbaldehyde, HCl] |
| > 6.82 | CC(C)S(=N)(=O)c1ccc(COc2coc(CN3Cc4ccccc4C3)cc2=O)cc1 (centres unmarked) [Compound 103, 2-(Isoindolin-2-ylmethyl)-5-((4-(propan-2-ylsulfonimidoyl)benzyl)oxy)-4H-pyran-4-one] |
| > 6.82 | O=c1cc(CN2Cc3ccccc3C2)occ1OCc1ccc(-c2ncco2)cc1 [Compound 109, 2-(Isoindolin-2-ylmethyl)-5-((4-(oxazol-2-yl)benzyl)oxy)-4H-pyran-4-one] |
| 6.52 to 6.82 | CC1(COc2coc(CN3Cc4ccccc4C3)cc2=O)CCN(S(C)(=O)=O)CC1 [Compound 191, 2-(Isoindolin-2-ylmethyl)-5-((4-methyl-1-(methylsulfonyl)piperidin-4-yl)-methoxy)-4H-pyran-4-one] |
| 6.52 to 6.82 | CCS(=O)(=O)c1ccc(COc2coc(CN3Cc4ccccc4C3)cc2=O)cc1 [Compound 24, 5-((4-(Ethylsulfonyl)benzyl)oxy)-2-(isoindolin-2-ylmethyl)-4H-pyran-4-one] |
| 6.52 to 6.82 | O=C(c1ccco1)N1CCC(COc2coc(CN3Cc4ccccc4C3)cc2=O)CC1 [Compound 260, 5-((1-(Furan-2-carbonyl)piperidin-4-yl)methoxy)-2-(isoindolin-2-ylmethyl)-4H-pyran-4-one] |
| > 6.82 | CS(C)(=O)=NC(=O)c1ccc(COc2coc(CN3Cc4ccccc4C3)cc2=O)cc1 [Compound 83, 4-({[6-(1,3-Dihydro-2H-isoindol-2-ylmethyl)-4-oxo-4H-pyran-3-yl]oxy}methyl)-N-[dimethyl(oxido)-λ^6-sulfanylidene]benzamide] |
| > 6.82 | CC(C)(O)c1ccc(COc2coc(CN3Cc4ccccc4C3)cc2=O)cc1 [Compound 49, 5-((4-(2-Hydroxypropan-2-yl)benzyl)oxy)-2-(isoindolin-2-ylmethyl)-4H-pyran-4-one] |
| 6.52 to 6.82 | O=c1cc(CN2Cc3ccccc3C2)occ1OCc1ccc(S(=O)(=O)N2CCCCC2)cc1 [Compound 7, 2-(Isoindolin-2-ylmethyl)-5-((4-(piperidin-1-ylsulfonyl)benzyl)oxy)-4H-pyran-4-one] |
| > 6.82 | CN(C)C(=O)c1ccc(COc2coc(CN3Cc4ccc(C(F)(F)F)cc4C3)cc2=O)cc1 [Compound 139, N,N-Dimethyl-4-(((4-oxo-6-((5-(trifluoromethyl)isoindolin-2-yl)methyl)-4H-pyran-3-yl)oxy)methyl)benzamide] |
| > 6.82 | O=C(c1ccc(COc2coc(CN3Cc4ccccc4C3)cc2=O)cc1)N1CCC1 [Compound 129, 5-((4-(Azetidine-1-carbonyl)benzyl)oxy)-2-(isoindolin-2-ylmethyl)-4H-pyran-4-one] |
| 6.52 to 6.82 | CS(=O)(=O)N1CCC(COc2coc(CN3Cc4cc(F)c(F)cc4C3)cc2=O)CC1 [Compound 210, 2-((5,6-Difluoroisoindolin-2-yl)methyl)-5-((1-(methylsulfonyl)piperidin-4-yl)methoxy)-4H-pyran-4-one] |
| > 6.82 | O=C(C1CCC(COc2coc(CN3Cc4ccccc4C3)cc2=O)CC1)N1CCC1 (centres unmarked) [Compound 234, 5-((4-(Azetidine-1-carbonyl)cyclohexyl)methoxy)-2-(isoindolin-2-ylmethyl)-4H-pyran-4-one] |
| 6.52 to 6.82 | CN(C)C(=O)Cc1ccc(COc2coc(CN3Cc4ccccc4C3)cc2=O)cc1 [Compound 136, 2-(4-(((6-(Isoindolin-2-ylmethyl)-4-oxo-4H-pyran-3-yl)oxy)methyl)phenyl)-N,N-dimethylacetamide] |
| > 6.82 | CS(=O)(=O)N(C1CCC(COc2coc(CN3Cc4ccccc4C3)cc2=O)CC1)C1CC1 (centres unmarked) [Compound 219, N-Cyclopropyl-N-(4-(((6-(isoindolin-2-ylmethyl)-4-oxo-4H-pyran-3-yl)oxy)-methyl)cyclohexyl)methanesulfonamide] |
| > 6.82 | CC(C)C(=O)N1CCC(COc2coc(CN3Cc4ccccc4C3)cc2=O)CC1 [Compound 272, 5-((1-Isobutyrylpiperidin-4-yl)methoxy)-2-(isoindolin-2-ylmethyl)-4H-pyran-4-one] |
| > 6.82 | CC(=O)[C@H]1CC[C@H](COc2coc(CN3Cc4ccccc4C3)cc2=O)CC1 [Compound 244, 5-(((1r,4r)-4-Acetylcyclohexyl)methoxy)-2-(isoindolin-2-ylmethyl)-4H-pyran-4-one] |
| > 6.82 | O=c1cc(CN2Cc3ccc(C(F)(F)F)cc3C2)occ1OCc1ccc(C2(O)COC2)cc1 [Compound 116, 5-((4-(3-Hydroxyoxetan-3-yl)benzyl)oxy)-2-((5-(trifluoromethyl)isoindolin-2-yl)methyl)-4H-pyran-4-one] |
| > 6.82 | CS(=O)(=O)N1CCC(COc2coc(CN3Cc4ccccc4C3)cc2=O)CC1 [Compound 185, 2-(Isoindolin-2-ylmethyl)-5-((1-(methylsulfonyl)piperidin-4-yl)methoxy)-4H-pyran-4-one] |
